{
  "source": "patent US10865435B2",
  "about": "“Method of screening antibacterial compounds as inhibitor of Mfd” (INSTITUT NATIONAL DE LA RECHERCHE AGRONOMIQUE, priority 2016, dated 2020)",
  "system": "Bacillus cereus strain Bc 407",
  "assay": "Molecule capacity to inhibit bacterial growth in the presence of artificially produced nitric oxide (cfu plating)",
  "type": "cell-based",
  "experimental": "Bacteria (Bacillus cereus strain Bc 407) were grown in LB medium until mid exponential growth phase at 37° C. with shaking. Cultures were then diluted to 10^4 cfu/ml in PBS (Phosphate Buffered Saline, Sigma). The molecules to be tested (potential Mfd inhibitors) are added at a concentration of 0 to 1 mM to the bacteria and the bacteria+inhibitors are incubated at room temperature for 1 h without agitation.\nBacteria were then exposed directly to chemically generated NO+ in a cell-free system as described by Miyagi et al. (Miyagi et al., 1997) with modifications. Briefly, 10^4 bacterial cfu (+various concentrations of potential Mfd inhibitors) are incubated in RPMI-1640 medium (Invitrogen) at acidic pH (pH 5.4) either in the absence or in the presence of 1.5 mM sodium nitrite (Walco Pure Chemical Industries Ltd) at 37° C. for 1 h under shaking; under these acidic conditions, NO+ is generated from the sodium nitrite by a chemical reaction (Miyagi et al., 1997).\nThe bacteria are harvested and plated on agar plates to evaluate bacterial survival. The cfu obtained without nitric oxide stress gives the toxicity value whereas the cfu obtained following nitric oxide stress gives the inhibitor efficacy value. Using this cell free assay, the inhibitor concentration required to decrease by 50% the survival rate of the bacteria (IC50) in the presence of nitric oxide stress compared to untreated bacteria is calculated using the GraphPad PRISM software (version 6.0, GraphPad Software, San Diego, Calif.) with non-linear regression.",
  "data": [
    {"smiles": "CN1CC(=O)N2[C@H](c3ccc4c(c3)OCO4)c3[nH]c4ccccc4c3C[C@@H]2C1=O", "note": "[tadalafil, (6R-trans)-6-(1,3-benzodioxol-5-yl)-2,3,6,7,12,12a-hexahydro-2-methyl-pyrazino[1′,2′:1,6]pyrido[3,4-b]indole-1,4-dione]", "values": [
      {"measurement": "IC50", "setting": "1.5 mM sodium nitrite, pH 5.4, 37° C., 1 h, mean of two experiments, read-out: IC50 (concentration required to decrease by 50% the survival rate of the bacteria in the presence of nitric oxide stress compared to untreated bacteria)", "value": 98.7, "unit": "µM"},
      {"measurement": "activity on B. cereus survival with nitric oxide (NO) stress", "setting": "with NO stress, at 100 μM", "value": "activity"},
      {"measurement": "activity on B. cereus survival without stress (toxicity)", "setting": "without nitric oxide stress, until 100 μM", "value": "weak activity"}
    ]}
  ]
}
